According to patent US8912121B2, “Herbicidal compositions comprising 4-amino-3-chloro-5-fluoro-6-(4-chloro-2-fluoro-3-methoxyphenyl)pyridine-2-carboxylic acid or a derivative thereof and certain PS II inhibitors” (Dow Agrosciences LLC, priority 2012, dated 2014):
Values joined by “and” are separate entries in the source; they are usually repeats but may differ in a detail not shown here. Identical values can stand only once. Like-named read-outs stand apart in the source and are kept apart here.

Key:
Assay in all cases: Postemergence foliar-applied mixtures, direct seeded rice, greenhouse
[1] = system: BRAPP (Brachiaria platyphylla, broadleaf signalgrass); format: in vivo, Brachiaria platyphylla (Griseb.) Nash
Source text: (§1) Seeds or nutlets of the desired test plant species were planted in a soil matrix prepared by mixing a loam or sandy loam soil (e.g., 28.6 percent silt, 18.8 percent clay, and 52.6 percent sand, with a pH of about 5.8 and an organic matter content of about 1.8 percent) and calcareous grit in an 80 to 20 ratio. The soil matrix was contained in plastic pots with a volume of 1 quart and a surface area of 83.6 square centimeters (cm^2). When required to ensure good germination and healthy plants, a fungicide treatment and/or other chemical or physical treatment was applied. The plants were grown for 8-22 days in a greenhouse with an approximate 14 h photoperiod which was maintained at about 29° C. during the day and 26° C. during the night. Nutrients (Peters Excel® 15-5-15 5-Ca 2-Mg and iron chelate) were applied in the irrigation solution as needed and water was added on a regular basis. Supplemental lighting was provided with overhead metal halide 1000-Watt lamps as necessary. The plants were employed for testing when they reached the first through fourth true leaf stage.
Treatments consisted of the acid or esters of 4-amino-3-chloro-5-fluoro-6-(4-chloro-2-fluoro-3-methoxy-phenyl) pyridine-2-carboxylic acid (Compound A), each formulated as an SC (suspension concentrate), and various herbicidal components alone and in combination. Forms of compound A were applied on an acid equivalent basis.
Other herbicidal components were applied on an active ingredient basis and included Photosystem II (PSII)-inhibiting herbicides propanil formulated as Stam® M4 EC, bentazon-sodium formulated as Basagran®, atrazine formulated as Atrazine 90 WDG, bromoxynil octanoate ester formulated as Buctril®, simetryne (technical grade material), simazine formulated as Princep® Caliber 90, ioxynil (technical grade material), cyanazine (technical grade material), and hexazinone (technical grade material).
(§2) Treatment requirements were calculated based upon the rates being tested, the concentration of active ingredient or acid equivalent in the formulation, and a 12 mL application volume at a rate of 187 L/ha.
For treatments comprised of formulated compounds, measured amounts of compounds were placed individually in 25 mL glass vials and diluted in a volume of 1.25% (v/v) Agri-Dex® crop oil concentrated to obtain 12× stock solutions. […] Application solutions were prepared by adding an appropriate amount of each stock solution (e.g., 1 mL) and diluted to the appropriate final concentrations with the addition of 10 mL of an aqueous mixture of 1.25% (v/v) crop oil concentrate so that the final spray solutions contained 1.25+/−0.05% (v/v) crop oil concentrate.
For treatments comprised of technical compounds, weighed amounts can be placed individually in 25 mL glass vials and dissolved in a volume of 97:3 v/v acetone/DMSO to obtain 12× stock solutions. […] Application solutions can be prepared by adding an appropriate amount of each stock solution (e.g., 1 mL) and diluted to the appropriate final concentrations with the addition of 10 mL of an aqueous mixture of 1.5% (v/v) crop oil concentrate so that the final spray solutions contain 1.25% (v/v) crop oil concentrate. When technical materials are used, the concentrated stock solutions can be added to the spray solutions so that the final acetone and DMSO concentrations of the application solutions are 16.2% and 0.5%, respectively.
(§3) For treatments comprised of formulated and technical compounds, weighed amounts of the technical materials were placed individually in 25 mL glass vials and dissolved in a volume of 97:3 v/v acetone/DMSO to obtain 12× stock solutions, and measured amounts of the formulated compounds were placed individually in 25 mL glass vials and diluted in a volume of 1.5% (v/v) crop oil concentrate or water to obtain 12× stock solutions. […]

[2] = system: COMBE (Commelina benghalensis, Benghal dayflower); format: in vivo, Commelina benghalensis L.; settings: 20 DAA
Source text: as §1, with “stage. […]” for “stage.”
as §2
For treatments comprised of formulated compounds, measured amounts of compounds were placed individually in 25 mL glass vials and diluted in a volume of 1.25% (v/v) Agri-Dex® crop oil concentrated to obtain 12× stock solutions. […]
as §3

[3] = system: IPOHE (Ipomoea hederacea, ivyleaf morningglory); format: in vivo, Ipomoea hederacea Jacq.; settings: post-emergence
Outline: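 Greenhouse plants in loam/grit soil (about 29/26°C, 14 h photoperiod) sprayed post-emergence at first to fourth true leaf stage at 187 L/ha. Compound A dosed as acid equivalent, partner PSII herbicides as active ingredient, alone and in mixtures, in spray solutions containing 1.25% crop oil concentrate.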

In the case of `CCNc1nc(Cl)nc(NCC)n1` [Simazine, 6-chloro-N,N′-diethyl-1,3,5-triazine-2,4-diamine, reference compound], the “Visual Weed Control (%) Obs” value ([1]; 560 g ai/ha, 20 DAA) is reported as 0%, the “Visual Weed Control (%) Obs” value ([1]; 1120 g ai/ha, 20 DAA) is reported as 0% and the “Visual Weed Control (%) Obs” value ([1]; 2240 g ai/ha, 20 DAA) is reported as 0%.
For `CCNc1nc(Cl)nc(NC(C)C)n1` [Atrazine, 6-chloro-N-ethyl-N′-(1-methylethyl)-1,3,5-triazine-2,4-diamine, reference compound], the “Visual Weed Control (%) Obs” value ([1]; 280 g ai/ha, 22 DAA) was 0% and the “Visual Weed Control (%) Obs” value ([1]; 560 g ai/ha, 22 DAA) was 0%.
With `CCC(=O)Nc1ccc(Cl)c(Cl)c1` [Propanil, N-(3,4-dichlorophenyl)propanamide, reference compound] the “Visual Weed Control (%) Obs” value ([2]; 3360 g ai/ha) was 10%, the pest or weed control at 3360 g/ha ([3]; 480 h, 3360 g ai/ha, 20 DAA, read-out: Visual Weed Control (%) Obs) was 40% and the pest or weed control at 420 g/ha ([3]; 504 h, 420 g ai/ha, 21 DAA, read-out: Visual Weed Control (%) Obs) was 0%. The pest or weed control at 840 g/ha ([3]; 504 h, 840 g ai/ha, 21 DAA, read-out: Visual Weed Control (%) Obs) was 0% and the pest or weed control at 1680 g/ha ([3]; 504 h, 1680 g ai/ha, 21 DAA, read-out: Visual Weed Control (%) Obs) was 0%.
In the case of `COc1c(Cl)ccc(-c2nc(C(=O)OCc3ccccc3)c(Cl)c(N)c2F)c1F` [Compound A Benzyl Ester, benzyl ester of 4-amino-3-chloro-5-fluoro-6-(4-chloro-2-fluoro-3-methoxy-phenyl)pyridine-2-carboxylic acid], the “Visual Weed Control (%) Obs” value ([2]; 6 g ae/ha) is reported as 80% and 70%, the pest or weed control at 32 g/ha ([3]; 480 h, read-out: Visual Weed Control (%) Obs, 32 g ae/ha, 20 DAA) is reported as 55% and the pest or weed control at 4.38 g/ha ([3]; 504 h, read-out: Visual Weed Control (%) Obs, 4.38 g ae/ha, 21 DAA) is reported as 0%. For the same molecule, the pest or weed control at 8 g/ha ([3]; 504 h, read-out: Visual Weed Control (%) Obs, 8 g ae/ha, 21 DAA) was 10%, the pest or weed control at 8.75 g/ha ([3]; 504 h, read-out: Visual Weed Control (%) Obs, 8.75 g ae/ha, 21 DAA) was 15% and the pest or weed control at 16 g/ha ([3]; 504 h, read-out: Visual Weed Control (%) Obs, 16 g ae/ha, 21 DAA) was 25%. For the same molecule, the pest or weed control at 17.5 g/ha ([3]; 504 h, read-out: Visual Weed Control (%) Obs, 17.5 g ae/ha, 21 DAA) was 38%, the pest or weed control at 17.5 g/ha ([3]; 504 h, read-out: Visual Weed Control (%) Obs, 17.5 g ae/ha, 21 DAA (second set, r27-r31)) was 38% and the pest or weed control at 32 g/ha ([3]; 504 h, read-out: Visual Weed Control (%) Obs, 32 g ae/ha, 21 DAA) was 60%. The pest or weed control at 35 g/ha ([3]; 504 h, read-out: Visual Weed Control (%) Obs, 35 g ae/ha, 21 DAA) was 55%, the “Visual Weed Control (%) Obs” value ([1]; 4.38 g ae/ha, 22 DAA) was 55% and the “Visual Weed Control (%) Obs” value ([1]; 8 g ae/ha, 20 DAA) was 55%. For the same molecule, the “Visual Weed Control (%) Obs” value ([1]; 8.75 g ae/ha, 22 DAA) was 70%, the “Visual Weed Control (%) Obs” value ([1]; 16 g ae/ha, 20 DAA) was 90% and the “Visual Weed Control (%) Obs” value ([1]; 17.5 g ae/ha, 22 DAA) was 75%. The “Visual Weed Control (%) Obs” value ([1]; 32 g ae/ha, 20 DAA) was 90%.
`COc1c(Cl)ccc(-c2nc(C(=O)O)c(Cl)c(N)c2F)c1F` [Compound A Acid, 4-amino-3-chloro-6-(4-chloro-2-fluoro-3-methoxyphenyl)-5-fluoropyridine-2-carboxylic acid] was tested, and the pest or weed control at 19.4 g/ha ([3]; 480 h, 19.4 g ae/ha, 20 DAA, read-out: Visual Weed Control (%) Obs) was 15%, the pest or weed control at 21.2 g/ha ([3]; 480 h, 21.2 g ae/ha, 20 DAA, read-out: Visual Weed Control (%) Obs) was 35% and the pest or weed control at 42.4 g/ha ([3]; 480 h, 42.4 g ae/ha, 20 DAA, read-out: Visual Weed Control (%) Obs) was 55%. For the same molecule, the pest or weed control at 4.38 g/ha ([3]; 504 h, 4.38 g ae/ha, 21 DAA, read-out: Visual Weed Control (%) Obs) was 15%, the pest or weed control at 8.75 g/ha ([3]; 504 h, 8.75 g ae/ha, 21 DAA, read-out: Visual Weed Control (%) Obs) was 35% and the “Visual Weed Control (%) Obs” value ([1]; 4.38 g ae/ha, 22 DAA) was 45%. For the same molecule, the “Visual Weed Control (%) Obs” value ([1]; 8.75 g ae/ha, 22 DAA) was 70%.
